# Read-outs that look alike come from different tables or passages of the source.
# Assays:
# [1] = test system: THP-1 cells; test: LPS-induced cytokine, chemokine and MMP-9 secretion by THP-1 cells (ELISA); format: cell-based, Human
# Protocol: THP-1 cells were cultured in RPMI1640 medium, supplemented with 10% FBS/100 units/ml Penicillin/10 μg/ml Streptomycin at 37° C., under 5% CO2. […] For the untreated control group (no LPS, no compound) and LPS alone group, equivalent volumes of DMSO were added to the medium. Cells were cultured at 37° C. and pellets were collected at 0 hr, 1 hr, 3 hr, 6 hr, 12 hr & 24 hr. Cell pellets were stored at −80° C. if RNA isolation was not conducted immediately. For experiments to study cytokine secretion in culture supernatants, THP-1 cells were washed twice with PBS, resuspended at 3.4×10^5/ml and cultured in 96-well plates at 250 μL, per well at 37° C. […] Supernatants were collected at different time points as indicated in the figures and were kept at ≦−20° C. until analysis of cytokine production.
# (§1) Human IL-6, IL18, IL1β, MCP-1, MMP-9, and mouse IL-6, IL18, TNFα, MCP-1 and IL-1β were measured with ELISA kits (R&D Systems) according to the manufacturer's instructions.
# (§2) Samples were tested for cytokines using the Bio-plex cytokine assay kit (Bio-Rad Laboratories, Inc.) according to the manufacturer's instructions. Briefly, 50 μL anti-cytokine antibody conjugated beads were added to wells of a filter plate pre-equilibrated with assay buffer. The beads were washed, then 50 μL of undiluted cell culture supernatant or 4-fold diluted plasma samples were added and incubated for 2 hours. Biotinylated anti-cytokine antibody (25 μL) was added to each well and the plate was incubated with shaking for 1.5 hours. Streptavidin-PE (50 μL) was added to each well and the plate was incubated with shaking for 45 min. between incubations, wells were washed 3 times with 100 μL wash buffer and unbound analytes were filtered using a vacuum manifold. Following the last wash step, 125 μL of assay buffer was added to each well and the plate was placed on a shaker for 10 min. The plate was read on a Luminex^100 instrument (Luminex Corporation, Austin, Tex.) according to the manufacturer's instructions. The concentration of cytokine was determined from a standard curve assayed at the same time.
# [2] = test system: THP-1 cells; test: Inhibition of LPS-induced IL-6 release in THP-1 cells, concentration series; format: cell-based; settings: Homo sapiens, 100 ng/ml LPS, 0.5% FBS, supernatants at 48 hr, read-out: IC50 for inhibition of LPS-induced IL-6 secretion
# Protocol: (§3) THP-1 cells at 3.4×10^5/ml were cultured in 96-well plates in 0.5% FBS/RPMI 1640, in the absence or presence of 100 ng/ml LPS, plus or minus tipifarnib (starting from 5 μM, followed by 3-fold series dilution). The concentrations of tipifarnib were: 5 μM, 1.67 μM, 0.56 μM, 0.19 μM and 0.06 μM. Supernatants were collected at 48 hr. IL6 was quantified using ELISA kit from R&D Systems.
# as §3, with “Medium components were certified to contain less than 0.3 endotoxin units/ml. THP-1” for “THP-1”, “LPS” for “LPS,”, “tested” for “quantified”
# [3] = test system: human PBMC; test: LPS-induced cytokine production in human PBMC; format: cell-based
# Protocol: as §1
# Heparinized human blood (25 ml) from a healthy donor was overlaid into a 50 ml conical tubes containing 20 ml Ficoll-Paque, and centrifuged for 20 min at 2000 rpm at room temperature and then allowed to stop without using the brake on the centrifuge. The upper layer was aspirated, leaving the mononuclear cell layer undisturbed at the interface. Cells were carefully transferred the to a new […] conical tube. The conical tube was filled with PBS, mixed and centrifuged at 1500 rpm for 15 minutes at room temperature. The supernatant was carefully and completely removed. The cell pellet was resupended in 50 ml of PBS and centrifuged at 1500 rpm for 5 minutes. This wash step was repeated once more. The cells were counted and resuspended cells at 1.7×10^6/ml in low-endotoxin RPMI1640/10% FBS.
# Human PBMC (180 μl at 1.7×10^6/ml) were pipetted into each well of a 96-well plate. […] Cells were incubated at 37° C., under 5% CO2 for 1 hour, then 10 μl LPS (diluted in medium) were added per well to reach a final concentration of 10 ng/ml. Cells were cultured at 37° C., under 5% CO2. Supernatants were collected at 16 hours, 24 hours and 40 hours of LPS treatment, and IL-6 secretion was quantified.
# [4] = test system: BALB/c mice; test: LPS-induced cytokine production in vivo (murine model of LPS-induced inflammation); settings: for inhibition at 50 mg/kg: Mus musculus; for MCP-1 production: tipifarnib
# Protocol: The experiments were performed on female BALB/c mice (6-7 week old; Charles River Laboratories, Inc. MA). […] The control mice received the vehicle (20% cyclodextran) only. 20 μg LPS (Sigma), diluted in PBS, was injected into each mouse intraperitoneally. Blood samples were collected either by eye bleeding or cardiac puncture at 1 and 2 hours after LPS injection in one experiment, and at 2 and 3 hours after LPS injection in a second experiment. Plasma samples were collected by centrifugation, and stored at ≦−20° C. before being tested for cytokines using individual ELISA kits or Luminex analysis (see below).
# as §1, §2
# [5] = test system: dextran sodium sulphate-induced colitis; settings: WO 02/43733; cited from earlier work
# [6] = second experiment, 3 hours (results not shown)
smiles,measurement,setting,value
"Cn1cncc1C(N)(c1ccc(Cl)cc1)c1ccc2c(c1)c(-c1cccc(Cl)c1)cc(=O)n2C (single isomer, unassigned; (+)) [tipifarnib, (+)-6-[amino(4-chlorophenyl)(1-methyl-1H-imidazol-5-yl)methyl]-4-(3-chlorophenyl)-1-methyl-2(1H)-quinolinone]","LPS-induced TNF-α production, second phase of induction",[1]; after 22 h up to 48 hours,dose-dependent inhibition
same,"LPS-induced TNF-α production, initial peak",[1]; between 5 and 10 hours,unaffected
same,LPS-induced IL-8 production,"[1]; simvastatin 5 and 10 μM or tipifarnib 2 and 5 μM, 22, 30 and 48 hours","no significant inhibition of IL-8 production, except for 5 μM at 22 hours"
same,LPS-induced MMP-9 secretion,"[1]; simvastatin 5 and 10 μM or tipifarnib 2 and 5 μM, 30 and 48 hours",dose-dependently inhibited
same,extent of inhibition of MCP-1 secretion compared with 10 μM simvastatin,[1]; tipifarnib 2 μM,much greater
same,"LPS-induced TNF-α production, second phase of induction",[1]; tipifarnib 5 μM,totally inhibited
same,IL-1β secretion,[1]; tipifarnib 2 and 5 μM,dose-dependent inhibition
same,inhibition of IL-6 release,[1]; tipifarnib 2 and 5 μM,inhibition was observed at all time points
same,MCP-1 secretion,"[1]; tipifarnib 2 and 5 μM, up to 48 hours",dose-dependent inhibition
same,IC50,[2],~1000 nM
same,LPS-induced IL-6 production,"[3]; tipifarnib 2 μM, LPS 10 ng/ml, 10% FBS",no effect
same,IL-6 mean value lower than in absence of compound,"[3]; tipifarnib 5 μM, 24 hours, not statistically significant (P=0.104)",approximately 40%
same,LPS-induced IL-6 production,"[3]; tipifarnib 5 μM, after 16 and 40 hours",highly significant inhibition
same,LPS-induced TNF-α production,"[4]; 50 mg/kg oral 24, 17 and 1 hour before LPS 20 μg i.p., plasma at 1 and 2 hours",highly significant inhibition
same,inhibition at 50 mg/kg,"[4]; 50 mg/kg oral before LPS, 2 hours, first experiment, read-out: inhibition of MIP-1α production",~50%
same,inhibition at 50 mg/kg,"[4]; tipifarnib 50 mg/kg oral before LPS, after 3 hours, read-out: inhibition of IL-6 production",~50%
same,LPS-induced IL-8,[4]; results not shown,No effects
same,LPS-induced RANTES,[4]; results not shown,No effects
same,IL12-p40 induction by LPS,[4]; [6],inhibited
same,IL12-p70 induction by LPS,[4]; [6],inhibited
same,IL-1β production,"[4]; tipifarnib 50 mg/kg oral before LPS, after 3 hours",almost complete inhibition
same,MCP-1 production,[4]; 2 hours,significant inhibition
same,MCP-1 production,[4]; 3 hours,a decrease that did not reach statistical significance
same,disease scores,[5],reduction of disease scores
